According to patent US12138398B2, “Methods and devices for providing a stimulus to a subject to induce gamma oscillations” (Massachusetts Institute of Technology, priority 2015, dated 2024):

Key:
CK-p25 Tg mice [1] = test: Cortical (Hoechst) and neuronal (NeuN) layer thickness in CK-p25 Tg mice; type: in vivo, mouse; details: visual cortex; for thickness of V1-neuronal layer: NeuN
Protocol: A study was conducted to examine the effect of gamma exposure and/or administration in accordance with some embodiments on DNA damage and neuronal loss in the visual cortex of a subject. For the study, an inducible mouse model of p25 accumulation (i.e., a creatine kinase carboxyl-terminal fragment p25 Tg mouse (CK-p25 Tg mouse)) was used.
A study was conducted to compare groups of mice under different treatment regimens. FIG. 84 is a diagram of the groups including CK-control mice 8400, untreated CK-p25 Tg mice 8402, CK-p25 Tg mice treated with memantine (10 mg/kg daily) 8404, CK-p25 Tg mice exposed to the 40-Hz light flicker (one hour daily for 6 weeks) in accordance with some embodiments 8406, and CK-p25 Tg mice treated with memantine and also exposed to the 40-Hz light flicker 8408. Memantine is a medication used with limited success to treat severe AD by blocking NMDA receptors, thereby acting on the glutamatergic system.
Cortical layer loss was gauged using nuclear staining with Hoechst labels (i.e., blue fluorescent dyes used to stain DNA). Neuronal layer loss was gauged using NeuN, a neuronal nuclear antigen that is commonly used as a biomarker for neurons. FIG. 89 is a bar graph depicting average thickness of the V1-cortical layer in each group, and FIG. 90 is a bar graph depicting average thickness of the V1-NeuN-positive cell layer in each group.

CK-p25 Tg mice [2] = test: NeuN-positive cells (neuronal loss) in CK-p25 Tg mice; type: in vivo, mouse
Protocol: A study was conducted to examine the effect of gamma exposure and/or administration in accordance with some embodiments on DNA damage and neuronal loss in the visual cortex of a subject. For the study, an inducible mouse model of p25 accumulation (i.e., a creatine kinase carboxyl-terminal fragment p25 Tg mouse (CK-p25 Tg mouse)) was used. […] A study was conducted to compare groups of mice under different treatment regimens. FIG. 84 is a diagram of the groups including CK-control mice 8400, untreated CK-p25 Tg mice 8402, CK-p25 Tg mice treated with memantine (10 mg/kg daily) 8404, CK-p25 Tg mice exposed to the 40-Hz light flicker (one hour daily for 6 weeks) in accordance with some embodiments 8406, and CK-p25 Tg mice treated with memantine and also exposed to the 40-Hz light flicker 8408. Memantine is a medication used with limited success to treat severe AD by blocking NMDA receptors, thereby acting on the glutamatergic system. FIG. 98 is a bar graph comparing the amount of NeuN-positive cells as a percentage of the NeuN-positive cells in CK-control mice for the CK-control mice, untreated CK-p25 Tg mice, CK-p25 Tg mice treated with memantine, CK-p25 Tg mice exposed to the 40-Hz light flicker in accordance with some embodiments, and CK-p25 Tg mice treated with both memantine and the 40-Hz light flicker. Thus, the percentage of the CK-control mice NeuN-positive cells are 100% in the CK-control mice, but only about 80% in untreated CK-p25 Tg mice, corroborating neuronal loss in the CK-p25 Tg mouse model. […] Thus, FIG. 98 illustrates how 40-Hz visual flicker treatment in accordance with some embodiments can preserve neurons in the visual cortex.

AD patients = details: AD subjects; cited from earlier work
CK-p25 Tg mice [3] = test: γH2AX-positive cells (DNA damage) in CK-p25 Tg mice; type: in vivo, mouse
Protocol: A study was conducted to examine the effect of gamma exposure and/or administration in accordance with some embodiments on DNA damage and neuronal loss in the visual cortex of a subject. For the study, an inducible mouse model of p25 accumulation (i.e., a creatine kinase carboxyl-terminal fragment p25 Tg mouse (CK-p25 Tg mouse)) was used. […] A study was conducted to compare groups of mice under different treatment regimens. FIG. 84 is a diagram of the groups including CK-control mice 8400, untreated CK-p25 Tg mice 8402, CK-p25 Tg mice treated with memantine (10 mg/kg daily) 8404, CK-p25 Tg mice exposed to the 40-Hz light flicker (one hour daily for 6 weeks) in accordance with some embodiments 8406, and CK-p25 Tg mice treated with memantine and also exposed to the 40-Hz light flicker 8408. Memantine is a medication used with limited success to treat severe AD by blocking NMDA receptors, thereby acting on the glutamatergic system. DNA double strand breaks (DSB) are one example of DNA damage in eukaryotic cells, causing genomic instability, leading to tumorigenesis and possibly accelerated aging. Phosphorylated histone H2AX (γH2AX) was used as a biomarker of cellular response to DSB. FIG. 99 is bar graph comparing the amount of γH2AX-positive cells in CK-control mice, untreated CK-p25 Tg mice, CK-p25 Tg mice treated with memantine, CK-p25 Tg mice exposed to the 40-Hz light flicker in accordance with some embodiments, and CK-p25 Tg mice treated with both memantine and the 40-Hz light flicker. Cells positive for γH2AX were almost non-existent in CK-control mice, but very high in untreated CK-p25 Tg mice, indicating high amounts of DSB and other DNA damage. Treatment with memantine reduced the amount of γH2AX-positive cells in CK-p25 Tg mice compared to the untreated group. […] Thus, FIG. 99 illustrates how 40-Hz visual flicker treatment in accordance with some embodiments can reduce DNA damage in the visual cortex.

[4] = memantine + 40-Hz light flicker
[5] = memantine alone, compared to untreated CK-p25 Tg

CC12CC3CC(C)(C1)CC(N)(C3)C2 [memantine]
thickness of V1-neuronal layer (CK-p25 Tg mice [1]; [4]): 691 ± 20 µm
thickness of V1-neuronal layer (CK-p25 Tg mice [1]; memantine alone): 660 ± 7 µm
thickness of V1-cortical layer (CK-p25 Tg mice [1]; [4]): 821 ± 22 µm
thickness of V1-cortical layer (CK-p25 Tg mice [1]; memantine alone): 788 ± 9 µm
neuronal loss (NeuN-positive cells) in hippocampus (CK-p25 Tg mice [2]; [4]): prevented some neuronal loss
neuronal loss (NeuN-positive cells) in insular cortex (CK-p25 Tg mice [2]; [4]): prevented the least neuronal loss
neuronal loss (NeuN-positive cells) in somatosensory cortex (CK-p25 Tg mice [2]; [4]): prevented most neuronal loss
neuronal loss (NeuN-positive cells) in visual cortex (CK-p25 Tg mice [2]; [4]): failed to prevent as much neuronal loss
neuronal loss (NeuN-positive cells) in hippocampus (CK-p25 Tg mice [2]; [5]): prevented some neuronal loss
neuronal loss (NeuN-positive cells) in insular cortex (CK-p25 Tg mice [2]; [5]): prevented some neuronal loss
neuronal loss (NeuN-positive cells) in somatosensory cortex (CK-p25 Tg mice [2]; [5]): failed to prevent any neuronal loss
neuronal loss (NeuN-positive cells) in visual cortex (CK-p25 Tg mice [2]; [5]): prevented some neuronal loss
clinical outcome on cognition (AD patients): only mild cognitive benefits
number of γH2AX-positive cells in hippocampus (CK-p25 Tg mice [3]; [4]): significantly increased
number of γH2AX-positive cells in insular cortex (CK-p25 Tg mice [3]; [4]): significantly increased
number of γH2AX-positive cells in somatosensory cortex (CK-p25 Tg mice [3]; [4]): significantly increased
number of γH2AX-positive cells in visual cortex (CK-p25 Tg mice [3]; [4]): significantly increased
amount of γH2AX-positive cells in hippocampus (CK-p25 Tg mice [3]; [5]): reduced
amount of γH2AX-positive cells in insular cortex (CK-p25 Tg mice [3]; [5]): reduced
amount of γH2AX-positive cells in somatosensory cortex (CK-p25 Tg mice [3]; [5]): reduced
amount of γH2AX-positive cells in visual cortex (CK-p25 Tg mice [3]; [5]): reduced
